Data published in US20050014834A1, “Selective anesthetic agents and methods of identifying the same” (priority 2001, published 2005).

Legend:
GABAA receptors = conditions: cited from earlier work; for potentiation of the action of GABA: native and all recombinant GABAA receptors studied to date
[1] = test system: β2N289S knock-in and wildtype mice; experiment: Rotarod test of motor co-ordination: recovery following etomidate anesthesia; format: in vivo, mouse; conditions: for time mice could stay on rotarod: 90 minutes after testing began, rod 16 rpm, 120 second trial
Procedure: Wildtype (n=30) and knock-in (n=30) mice were trained to perform the rotarod test of motor co-ordination. Mice were placed on a rod revolving at 16 rpm and the time taken for them to fall off recorded. Each mouse was given successive training trials until it could remain on the rod for 3 consecutive trials of 120 second duration. Mice were then split into 3 groups (n=10 for each genotype) and dosed i.p. with 15, 20 or 30 mg/kg etomidate. Mice were then placed back on the rotarod every 10 minutes (for 90 minutes), starting from the mean time for recovery of righting reflex for a given dose (obtained from experiment 1). In this way the rate of recovery of the ability to perform a motor task could be assessed.

[2] = target: T1, human GABAA receptor β2 subunit (position 289 mutant) (Homo sapiens, UniProt P14867+P47870, N289S); conditions: recombinant receptors expressed in cell lines; cited from earlier work
T1 construct: expressed in transfected cells
T1 sequence (P47870 25-512 N289S limits assumed): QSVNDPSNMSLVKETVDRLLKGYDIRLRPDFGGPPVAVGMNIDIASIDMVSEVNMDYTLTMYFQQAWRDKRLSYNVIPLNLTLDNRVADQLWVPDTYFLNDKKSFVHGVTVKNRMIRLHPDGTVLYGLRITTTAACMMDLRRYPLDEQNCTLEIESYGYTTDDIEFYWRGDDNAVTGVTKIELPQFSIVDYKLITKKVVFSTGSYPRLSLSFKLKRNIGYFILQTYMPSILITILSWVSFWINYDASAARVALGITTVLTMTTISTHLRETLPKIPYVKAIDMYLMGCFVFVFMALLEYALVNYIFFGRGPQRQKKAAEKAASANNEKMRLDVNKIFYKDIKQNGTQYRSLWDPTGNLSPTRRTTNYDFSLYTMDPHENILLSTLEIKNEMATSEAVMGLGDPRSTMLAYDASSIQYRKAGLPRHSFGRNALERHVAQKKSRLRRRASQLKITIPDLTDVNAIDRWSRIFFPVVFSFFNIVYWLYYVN
T1 sequence (P14867 28-456): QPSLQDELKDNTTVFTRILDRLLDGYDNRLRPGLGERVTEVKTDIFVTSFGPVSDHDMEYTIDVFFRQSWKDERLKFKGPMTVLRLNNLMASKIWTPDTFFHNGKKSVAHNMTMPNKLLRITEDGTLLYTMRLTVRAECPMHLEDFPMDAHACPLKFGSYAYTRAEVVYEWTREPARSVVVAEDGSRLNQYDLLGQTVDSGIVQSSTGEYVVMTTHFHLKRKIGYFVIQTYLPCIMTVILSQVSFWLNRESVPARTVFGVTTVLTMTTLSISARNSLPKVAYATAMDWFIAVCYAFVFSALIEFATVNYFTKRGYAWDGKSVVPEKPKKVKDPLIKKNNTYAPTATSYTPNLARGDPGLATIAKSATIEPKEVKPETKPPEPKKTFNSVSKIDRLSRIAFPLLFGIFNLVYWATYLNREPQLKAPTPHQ
T1 sequence (P18507 40-467 partner limits assumed): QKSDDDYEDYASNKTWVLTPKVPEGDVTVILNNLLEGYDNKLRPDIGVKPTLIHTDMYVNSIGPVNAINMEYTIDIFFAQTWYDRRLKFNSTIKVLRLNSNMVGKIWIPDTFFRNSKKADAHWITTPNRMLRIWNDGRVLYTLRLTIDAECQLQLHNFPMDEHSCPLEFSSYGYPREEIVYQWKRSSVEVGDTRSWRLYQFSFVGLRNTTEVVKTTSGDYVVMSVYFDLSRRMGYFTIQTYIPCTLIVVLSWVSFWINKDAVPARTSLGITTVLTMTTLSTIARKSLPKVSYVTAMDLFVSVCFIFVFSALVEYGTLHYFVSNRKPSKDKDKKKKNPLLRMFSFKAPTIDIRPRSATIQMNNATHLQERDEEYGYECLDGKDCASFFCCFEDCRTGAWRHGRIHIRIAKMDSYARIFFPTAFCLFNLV

[3] = test system: β2N289S knock-in and wildtype mice; experiment: Loss of righting reflex (LORR) as behavioural measure of anesthesia; format: in vivo, mouse
Procedure: Loss of righting reflex (LORR) was used as a crude behavioural measure of anesthesia. Mice (n=11 wildtype, n=10 knock-in for each dose) were dosed intraperitoneally (i.p.) with 20, 30 or 40 mg/kg etomidate. Each mouse was placed in a separate cage and tested for LORR by gently rolling the mouse on it back. When the righting reflex had disappeared (usually around 90 seconds) the mouse was laid on it back on a piece of corrugated plastic and the time until righting reflex was regained was recorded. In order to avoid excessive heat loss during anesthesia a heat lamp was placed above the mice. To control for non-specific changes in anesthetic sensitivity induced by the mutation two different classes of anesthetics were also tested in this model: pentobarbitone, 50 mg/kg i.p. (n=11) and midazolam, 80 mg/kg i.p. (n=5).

[4] = test system: β2N289S knock-in and wildtype mice; experiment: Level of anaesthesia by electroencephalography (EEG burst suppression); format: in vivo, mouse; conditions: 12.5 mg/kg intravenous; FIG. 4
Procedure: In order to compare the depth of anaesthesia in both genotypes, wildtype (n=4) and knock-in (n=4) mice were implanted with radiotelemetry transmitters for the measurement of electroencephalographic (EEG) data. Mice were allowed to recover from the surgical procedure for 14-21 days before experiment. Mice were dosed with 12.5 mg/kg etomidate by the intravenous route and EEG data was continuously sampled. Data sampled at 250 Hz (transmitter bandwidth 0.5-100 Hz, low pass data filter 70 Hz). Data analysed using Somnologica 3 in 100 mSec epochs for % suppression activity per minute. Isoelectric window defined as waveform amplitude less than 5 μV (typical peak to peak amplitude ˜250 μV).

[5] = target: GABAA receptor β3 subunit N289S (Homo sapiens, UniProt P28472+Q16445, N290S); conditions: asparagine 289 of β3 to serine; cited from earlier work
[6] = test system: β2N289S knock-in and wildtype mice; experiment: Post-anaesthetic slow wave sleep by EEG (hypnotic hangover); format: in vivo, mouse; conditions: 12.5 mg/kg intravenous, FIG. 5
Procedure: In order to quantify the amount of post-anaesthetic sleep, wildtype (n=4) and knock-in (n=4) mice were implanted with radiotelemetry transmitters for the measurement of electroencephalographic (EEG) data. Mice were allowed to recover from the surgical procedure for 13 days before experiment. Baseline EEG data was recorded on day 1 of the experimental protocol. On the 2nd experimental day, mice were dosed with 12.5 mg/kg etomidate by the intravenous route and EEG data was continuously sampled. EEG data sampled at 250 Hz (transmitter bandwidth 0.5-100 Hz, low pass data filter 70 Hz). Data analysed using Somnologica 3 in 8 sec epochs and scored for either “wake” or “slow wave sleep” according to standard electrophysiological criteria (van Gool, W. A. & Mirmiran, M., Sleep, 9, 335 (1986)). Following recovery from etomidate anaesthesia, the amount of slow wave sleep was expressed as percentage of the circadian timed matched baseline.

Chain of GABAA receptor β3 subunit N289S (P28472 26-473 N290S, one chain of several): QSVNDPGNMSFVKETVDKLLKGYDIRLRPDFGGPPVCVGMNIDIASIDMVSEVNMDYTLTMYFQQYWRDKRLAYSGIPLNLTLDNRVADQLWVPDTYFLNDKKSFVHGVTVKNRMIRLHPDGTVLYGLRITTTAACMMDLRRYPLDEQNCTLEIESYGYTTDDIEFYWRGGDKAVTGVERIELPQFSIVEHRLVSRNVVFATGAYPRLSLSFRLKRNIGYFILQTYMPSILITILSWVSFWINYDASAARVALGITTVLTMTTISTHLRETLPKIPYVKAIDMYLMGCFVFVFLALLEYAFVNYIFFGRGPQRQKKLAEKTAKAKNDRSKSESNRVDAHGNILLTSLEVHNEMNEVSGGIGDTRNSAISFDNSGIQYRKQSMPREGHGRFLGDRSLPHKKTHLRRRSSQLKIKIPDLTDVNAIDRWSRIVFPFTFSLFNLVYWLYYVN
Chain of GABAA receptor β3 subunit N289S (Q16445 20-453, one chain of several): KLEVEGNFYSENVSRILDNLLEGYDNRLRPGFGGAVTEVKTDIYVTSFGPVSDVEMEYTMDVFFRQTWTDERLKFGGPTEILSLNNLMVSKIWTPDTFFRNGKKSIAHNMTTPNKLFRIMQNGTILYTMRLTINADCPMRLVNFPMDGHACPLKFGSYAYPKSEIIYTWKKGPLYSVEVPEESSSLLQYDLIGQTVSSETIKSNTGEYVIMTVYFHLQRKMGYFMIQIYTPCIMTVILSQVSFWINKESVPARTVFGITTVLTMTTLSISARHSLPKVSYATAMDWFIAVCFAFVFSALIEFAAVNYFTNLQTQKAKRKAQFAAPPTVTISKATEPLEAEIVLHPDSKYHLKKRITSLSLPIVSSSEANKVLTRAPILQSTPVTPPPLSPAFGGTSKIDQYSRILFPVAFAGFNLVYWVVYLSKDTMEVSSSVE

SMILES: CC(=O)[C@H]1CC[C@H]2[C@@H]3CC[C@H]4C[C@H](O)CC[C@]4(C)[C@H]3C(=O)C[C@]12C [alphaxalone]
- potentiation of the action of GABA (GABAA receptors): markedly potentiate the action of GABA

SMILES: CCOC(=O)c1cncn1[C@H](C)c1ccccc1 [etomidate]
- rate of recovery of rotarod performance, wildtype versus knock-in ([1]; 15 mg/kg i.p.): recovered rotarod performance at a similar rate
- rate of recovery of rotarod performance, wildtype versus knock-in ([1]; 20 mg/kg and especially 30 mg/kg i.p.): wildtype mice recovered more slowly than knock-in mice
- recovery of performance in the rotarod assay, β2N289S mice compared with wildtype ([1]; anesthetic doses): dramatically faster recovery
- time mice could stay on rotarod ([1]; knock-in mice, 15 mg/kg i.p.): approximately 120 seconds
- time mice could stay on rotarod ([1]; wildtype mice, 15 mg/kg i.p.): approximately 120 seconds
- effect of dose on rate of rotarod recovery ([1]; wildtype mice, 15, 20, 30 mg/kg i.p., F18,243=5.80, p<0.00005, FIG. 3): clear effect on the rate of recovery with increasing dose
- sensitivity of mutant β2 (position 289) receptors [2]: insensitive
- time until righting reflex had disappeared ([3]; after i.p. dosing 20, 30 or 40 mg/kg, 'usually'): around 90 seconds
- duration of LORR, knock-in versus wildtype mice ([3]; etomidate 20, 30 or 40 mg/kg i.p., F1,57=0.005, p=0.9498, FIG. 2): nearly significantly similar
- EEG burst suppression (% of each minute EEG in suppression), wildtype versus knock-in [4]: no significant difference in the EEG pattern of both genotypes
- effect of β3 N289S mutation on GABA-modulatory and GABA-mimetic effects [5]: strongly suppressed
- β subunit preference of potentiation and direct activation of receptors (GABAA receptors; β2 or β3 versus β1 subunit): favours receptors containing either a β2 or a β3 subunit, versus a β1 subunit
- level of slow wave sleep versus circadian matched baseline after recovery ([6]; knock-in mice, P>0.05): not statistically different
- level of slow wave sleep versus circadian matched baseline after recovery ([6]; wildtype mice, up to 3 hours post recovery, ANOVA P<0.05): enhanced level of sleep

SMILES: Cc1ncc2n1-c1ccc(Cl)cc1C(c1ccccc1F)=NC2 [midazolam]
- duration of LORR, knock-in versus wildtype mice ([3]; midazolam 80 mg/kg i.p., F1,28=0.61, p=0.44): no significant difference

SMILES: CCCC(C)C1(CC)C(=O)NC(=O)NC1=O (stereo not drawn) [pentobarbitone]
- duration of LORR, knock-in versus wildtype mice ([3]; pentobarbitone 50 mg/kg i.p., F1,28=0.61, p=0.44): no significant difference

SMILES: CC(C)c1cccc(C(C)C)c1O [propofol]
- potentiation of the action of GABA (GABAA receptors): markedly potentiate the action of GABA
